Structures are written as SMILES.

The source of these data is publication PMC6270814, “Effects of Ursolic Acid Derivatives on Caco-2 Cells and Their Alleviating Role in Streptozocin-Induced Type 2 Diabetic Rats” (Molecules, 2014).

Data set [1] concerns STZ-induced diabetic rats. The data set is described as follows: Fasting blood glucose in STZ-induced diabetic rats, 4 weeks treatment. It counts as in vivo, rat. To be noted: STZ diabetic rats; for effect on lowering fasting blood glucose levels: 100 mg/kg, 4 weeks; for Fasting Blood Glucose Level, Week 0: Week 0 (before treatment), glibenclamide 10 mg/kg; for Fasting Blood Glucose Level, Week 0 / Fasting Blood Glucose Level, Week 1 / Fasting Blood Glucose Level, Week 2 / Fasting Blood Glucose Level, Week 3 / Fasting Blood Glucose Level, Week 4: compounds 100 mg/kg, n = 6; for Fasting Blood Glucose Level, Week 1 / Fasting Blood Glucose Level, Week 2 / Fasting Blood Glucose Level, Week 3 / Fasting Blood Glucose Level, Week 4: glibenclamide 10 mg/kg daily. Here is the method:
Adult male albino rats of Sprague-Dawley rats (180–220 g) were obtained from the Guangdong Medical Lab Animal Center, and maintained under standard laboratory conditions in a temperature (25–30 °C) and light-controlled (12-h light/dark cycle) room with 35%–60% humidity. The animals were acclimatized for 10 days before the experiments and provided with rodent chow and water ad libitum. The investigation was conducted in accordance with the Guide for the Care and Use of Laboratory Animals and approved by the institutional Animal Ethics Committee.
(§1) Diabetes was induced by a single intraperitoneal injection of streptozotocin (Sigma-Aldrich, St. Louis, MO, USA) at a dose of 65 mg/kg body weight. STZ was dissolved in 0.1 M cold citrate buffer, pH 4.5. Control group were injected with citrate buffer alone. After 7 days for the development of diabetes, plasma glucose levels were determined of each rat. Rats with fasting blood glucose (FBG) range of above 16.7 mmol/L were considered as DM rats and were used for further study.
(§2) According to the body weight and plasma glucose levels the rats were divided randomly into seven groups with six rats each and treated as follows: • Group I: Normal rats treated with 0.5% CMC-Na (2 mL/200 g body weight). • Group II: Diabetic rats treated with 0.5% CMC-Na. • Group III: Diabetic rats treated with 10 mg/kg of glibenclamide. • Group IV: Diabetic rats treated with 100 mg/kg of compound 1 (UA). • Group V: Diabetic rats treated with 100 mg/kg of compound 10. • Group VI: Diabetic rats treated with 100 mg/kg of compound 11. • Group VII: Diabetic rats treated with 100 mg/kg of compound 12.
(§3) The treatment was continued daily for 28 days. Blood glucose levels and body weight were measured every week to ascertain the status of diabetes. After 4 weeks of treatment, the animals were fasted for 12 h and sacrificed by cervical dislocation under mild anaesthetization, blood was collected into heparinized tubes and centrifuged at 2,000 rpm for 10 min. Livers and kidneys were removed, washed and homogenized in ice-cold normal saline. This homogenates were centrifuged at 3,000 rpm for 10 min at 4 °C, and the supernatants were collected for the estimate of antioxidant markers.
(§4) Fasting blood glucose levels were estimated on days 0, 7, 14, 28 with the single touch glucometer (Life Scan, Johnson & Johnson Company, New Brunswick, NJ, USA). Serum insulin level was measured by use of a commercial immunoassay kit by enzyme linked immunosorbent assay (Uscn. Life Science Inc., Wuhan, China). Serum total protein, albumin, triglycerides (TG), total cholesterol (TC), high-density lipoprotein cholesterol (HDL-C), and low-density lipoprotein cholesterol (LDL-C) were measured with an automatic biochemical analyzer (Sinnowa D240, Nanjing, China).

Data set [2] concerns STZ-induced diabetic rats. As to the kind of experiment: Serum biochemical parameters (insulin, total protein, albumin) in STZ-induced diabetic rats. It counts as in vivo, rat. To be noted: 4 weeks, compounds 100 mg/kg, glibenclamide 10 mg/kg. Here is the method:
as §1, §2, §3, §4

Data set [3] concerns STZ-induced diabetic rats. The data set is described as follows: Oxidative stress markers (GSH, SOD, MDA) in liver and kidney of STZ-induced diabetic rats. To be noted: 4 weeks; for GSH level in kidney: kidney of STZ diabetic rats. Type of data set: in vivo, rat. Here is the method: as §1, §2, §3
The tissue homogenates of liver and kidney were used for the estimate of antioxidant markers. Glutathione (GSH) level was measured with 5, 5'-dithiobis-(2-nitrobenzoic acid) (DTNB) as described by Sedlak and Lindsay. Superoxide dismutase (SOD) activity was assessed according to the method of Sinha. Malondialdehyde (MDA) activity was estimated with the thiobarbituric acid method.

The subject of data set [4] is STZ-induced diabetic rats. As to the kind of experiment: Body weight and daily food intake of STZ-induced diabetic rats. Type of data set: in vivo, rat. To be noted: compounds 100 mg/kg, glibenclamide 10 mg/kg, oral. Here is the method:
as §1, §2, §3

The test system of data set [5] is Caco-2 cells. As to the kind of experiment: MTT cytotoxicity assay on Caco-2 cells. Type of data set: cell-based, Human. To be noted: Homo sapiens, 24 h, mean ± SD, n = 4, read-out: Inhibition Rate %. How it is done:
(§5) Human intestinal Caco-2 cells (ATCC, Rockville, MD, USA) were incubated at 37 °C in a humidified atmosphere of 5% CO2 in air. The cells were cultured in Dulbecco’s […] medium (DMEM) with 10% heat-inactivated fetal bovine serum, 1% non-essential amino acids, 1% L-glutamine, 1% penicillin/streptomycin (Gibco Life Technologies, Grand Island, NY, USA). The cells were sub-cultured at confluence by 0.05% trypsin-0.5 mM EDTA treatment before they were applied in the experiment.
(§6) A MTT test was conducted to determine the possible toxicity of UA and its derivatives to Caco-2 cells. Briefly, cells were seeded at a density of 1 × 10^4 cells/mL in a 96-well plate and incubated for 24 h. The next day, cells were incubated with vehicle (0.1% DMSO) and compounds at 100, 50, 25, 12.5 μmol/L for 24 h, and then 5 g/L MTT solution (20 μL) was added for 4 h. Absorbance at 570 nm was measured using a Multimodel Plate Reader (Infinite 200, Tecan, Mannedorf, Switzerland).

In a further data set the test system is SGLT-1. The data set is described as follows: Western blot of SGLT-1 protein expression in Caco-2 cells. It counts as cell-based, Human. To be noted: 100 μM, 6 h. Here is the method: Caco-2 cells were cultured on 6-well plates at a density of 1 × 10^6 cells/well for 13 days. The cells were placed in serum-free medium for 24 h prior to the treatment. Then UA and its derivatives (100 μM) were added, after 6 h incubation, the cells were immediately washed three times with ice-cold PBS and lysed in 200 μL lysis buffer. Cells were allowed to lyse on ice, and then scraped, vortexed, sonicated and stored at −80 °C for further analysis. Protein concentrations were determined as described and cell lysate was subjected to western blot analysis. Briefly, proteins with same amount were denatured in sample buffer, separated on 8% SDS-PAGE gel, and transferred onto a polyvinylidene diflouride membrane. […] Membranes were then incubated overnight at 4 °C in blocking buffer with antibodies for GLUT-2, SGLT-1 and β-actin (EMD, Millipore, Billerica, MA, USA). Membranes were washed with TBST and incubated 1 h with appropriate secondary antibodies. Revelation was performed by using the enhanced chemiluminescence reagent and blue-light sensitive film. Densitometric analysis of films was performed with a Hewlett-Packard scanner equipped with a transparent adaptor and UN-SCAN-IT software.

Data set [6] concerns STZ-induced diabetic rats. The data set is described as follows: Serum lipid profile (TG, TC, LDL-C, HDL-C) in STZ-induced diabetic rats. Type of data set: in vivo, rat. To be noted: 4 weeks, compounds 100 mg/kg, glibenclamide 10 mg/kg. Here is the method:
as §1, §2, §3, §4

Data set [7] relates to Caco-2 cells. The data set is described as follows: 2-NBDG glucose uptake by Caco-2 cell monolayers, Na+-independent (sodium free buffer). It counts as cell-based, Human. To be noted: 100 μM compound, Na+-independent (KCl/K2HPO4 buffer). How it is done:
Caco-2 cells, which were derived from human colon adenocarcinoma, were selected for intestinal absorption studies because these cells express the morphological characteristics and most of the functional properties of differentiated small-intestinal enterocytes. Caco-2 cells were seeded on 24-well plates at the density of 2 × 10^5 cells/well. The medium was changed every 1–2 days, and the culture was carried out for 13 days. Then Caco-2 cells were placed in serum-free media for 24 h and then they were washed twice with Hanks’ balanced salt solution (HBSS, pH 7.5, 140 mM NaCl, 5 mM KCl, 1.2 mM Na2HPO4, 2 mM CaCl2, 1.2 mM MgSO4, 20 mM HEPES, 0.2% bovine serum albumin) before the uptake studies. When a sodium free buffer was required, NaCl and Na2HPO4 were replaced with equal amounts of KCl and K2HPO4, respectively. After washing, the cells were incubated for 15 min at room temperature in HBSS before the commencement of this experiment. The uptake studies were initiated by adding HBSS containing either control or test solution (100 μM) and […] (100 μM) for 30 min at 37 °C. Glucose uptake was stopped by adding twofold volume of ice-cold PBS and the wells were washed with ice-cold PBS three times. Fluorescent intensity was measured by a Multimodel Plate Reader (Tecan Infinity 200) with the 485 nmex and 535 nmemiss filter set before and after adding 2-NBDG. Then the cells were lysed in 200 μL lysis buffer (10 mM Tris-HCl pH = 7.4, 150 mM NaCl, 1% Triton-x-100, 1 mM EDTA, 0.1% SDS) and supplemented immediately before they were processed with 10 μg/mL PMSF. Cells were allowed to lyse on ice, and then vortexed and sonicated. The lysate was used for protein determination, protein concentrations were determined as described by BCA kit (Boster, Wuhan, China) with bovine serum albumin as standard.

A further data set concerns GLUT-2. As to the kind of experiment: Western blot of GLUT-2 protein expression in Caco-2 cells. Type of data set: cell-based, Human. To be noted: 100 μM, 6 h. Here is the method: Caco-2 cells were cultured on 6-well plates at a density of 1 × 10^6 cells/well for 13 days. The cells were placed in serum-free medium for 24 h prior to the treatment. Then UA and its derivatives (100 μM) were added, after 6 h incubation, the cells were immediately washed three times with ice-cold PBS and lysed in 200 μL lysis buffer. Cells were allowed to lyse on ice, and then scraped, vortexed, sonicated and stored at −80 °C for further analysis. Protein concentrations were determined as described and cell lysate was subjected to western blot analysis. Briefly, proteins with same amount were denatured in sample buffer, separated on 8% SDS-PAGE gel, and transferred onto a polyvinylidene diflouride membrane. The membranes were blocked for 1 h at 37 °C with 10% defatted milk in Tris-buffered saline (10 mM Tris-HCl, pH 7.5 and 137 mM NaCl) containing 0.05% Tween 20 (TBST). Membranes were then incubated overnight at 4 °C in blocking buffer with antibodies for GLUT-2, SGLT-1 and β-actin (EMD, Millipore, Billerica, MA, USA). Membranes were washed with TBST and incubated 1 h with appropriate secondary antibodies. Revelation was performed by using the enhanced chemiluminescence reagent and blue-light sensitive film. Densitometric analysis of films was performed with a Hewlett-Packard scanner equipped with a transparent adaptor and UN-SCAN-IT software.

The nature of data set [8]: MTT cytotoxicity assay on Caco-2 cells. It counts as cell-based, Human. To be noted: human. Here is the method:
as §5, §6

For the molecule `CC(C)C(=O)O[C@H]1CC[C@@]2(C)C(CC[C@]3(C)C2CC=C2C4[C@@H](C)[C@H](C)CC[C@]4(C(=O)O)CC[C@]23C)C1(C)C` (some centres unmarked) [Compound 12], in data set [1], the “effect on lowering fasting blood glucose levels” value is on record as “no significant effect”; the “Fasting Blood Glucose Level, Week 0” value is recorded as 325.80 ± 14.58 mg/dL; the “Fasting Blood Glucose Level, Week 1” value is 392.40 ± 36.54 mg/dL; the “Fasting Blood Glucose Level, Week 2” value stood at 379.80 ± 30.60 mg/dL. In addition, in data set [1], the “Fasting Blood Glucose Level, Week 3” value was 408.60 ± 20.52 mg/dL and the “Fasting Blood Glucose Level, Week 4” value is 432.00 ± 28.26 mg/dL. For the same molecule, in data set [2], the “serum albumin level vs diabetic control” value was “no appreciable improvement”, the “serum insulin level vs diabetic control” value was “non-significant effect” and the “serum total protein level vs diabetic control” value was “no appreciable improvement”. The “GSH level in kidney” value in data set [3] is reported as “great effect”. Moreover, in data set [4], the “daily food intake vs untreated diabetic rats” value is listed as “no obvious decrease”. The inhibition (usually the share of the control response that was lost under treatment) at 100 µM in the data set on Caco-2 cells [5] came out at 7.67 ± 5.36%. Besides, in the data set on SGLT-1, the “effect on protein expression of SGLT-1” value was “significantly reduce”.

`CCCC(=O)O[C@H]1CC[C@@]2(C)C(CC[C@]3(C)C2CC=C2C4[C@@H](C)[C@H](C)CC[C@]4(C(=O)O)CC[C@]23C)C1(C)C` (some centres unmarked) [Compound 11]: in data set [6], the “serum TC level vs diabetic control” value was “significantly decreased” and the “serum TG level vs diabetic control” value is reported as “significantly decreased”. Further, the “glucose uptake, % of the control value (Na+-independent)” value in the data set with Caco-2 cells [7] is given as 74 % of the control value. Besides, in [1], the “effect on lowering fasting blood glucose levels” value is listed as “no significant effect”; the “Fasting Blood Glucose Level, Week 0” value turned out to be 318.60 ± 17.64 mg/dL; the “Fasting Blood Glucose Level, Week 1” value stood at 365.40 ± 20.34 mg/dL; the “Fasting Blood Glucose Level, Week 2” value came to 352.80 ± 27.36 mg/dL. In [1], the “Fasting Blood Glucose Level, Week 3” value is given as 324.00 ± 23.04 mg/dL and the “Fasting Blood Glucose Level, Week 4” value is reported as 351.00 ± 26.64 mg/dL. Besides, in data set [2], the “serum albumin level vs diabetic control” value is “no appreciable improvement”, the “serum insulin level vs diabetic control” value is “non-significant effect” and the “serum total protein level vs diabetic control” value is “no appreciable improvement”. Further, the “GSH level in kidney” value in data set [3] is reported as “great effect”. Also, the “SOD level in the liver and kidney” value in data set [3] (liver and kidney of STZ diabetic rats) is on record as “great improvement”. For the same molecule, the “daily food intake vs untreated diabetic rats” value in [4] is “reduce daily food intake significantly”. Further, in the data set with Caco-2 cells [5], the inhibition at 100 µM is 2.29 ± 6.08%. The “effect on expression of protein GLUT-2” value in the data set on GLUT-2 is “significant effects on reducing”.

Take `CC(=O)O[C@H]1CC[C@@]2(C)C(CC[C@]3(C)C2CC=C2C4[C@@H](C)[C@H](C)CC[C@]4(C(=O)Nc4ccccc4F)CC[C@]23C)C1(C)C` (some centres unmarked) [Compound 6]: the inhibition at 100 µM with Caco-2 cells [5] is 13.9 ± 4.52%. In addition, the viability (as a rule, the share of living cells, or the viability signal relative to a control) at 24 h, 100 µM in data set [8] was determined as 86.1%.
